Results reported in patent US9259409B2, “Compositions comprising a prostaglandin for treating neuropsychiatric conditions” (Inceptum Research & Therapeutics, Inc., priority 2011, dated 2016).
“Also recorded” adds a separate entry of the source.

How the values were obtained:
GSK-3 [1] = test: Cytoplasmic β-catenin stabilization in HEK293T cells (Western blot); assay type: cell-based, human; settings: 10 μM, vs DMSO-treated cells
Experimental: Human embryonic kidney 293T (HEK293T) cells, U87MG astrocytoma and the human oligodendrocyte cell line MO3-13 were grown in Dubelco Minimal Eagle Media (DMEM) (Invitrogen, Carlsbad, Calif., USA) supplemented with 5% heat inactivated fetal bovine serum. Cells were grown to 70% confluence prior to treatment. […] Cells were exposed to drug for 3 hours at 37° C. in a 5% CO2 incubator. U87MG cells were grown to 70% confluence prior to treatment. Cells were treated with either DMSO vehicle (NT) or individually with 1, 5 and 10 μM latanoprost in DMEM lacking fetal bovine serum. Cells were exposed to treatments for 6 hours at 37° C. in a 5% CO2 incubator. The human oligodendrocyte cell line MO3-13 was grown and differentiated according to the methods described in McLaurin et al. (McLaurin, J., Trudel, G. C., Shaw, I. T., Antel, J. P., and Cashman, N. R., J. Neurobiol., 26: 283-293, 1995). On the third day of serum starvation, cells were treated with either DMSO vehicle (NT) or individually with 1, 5 and 10 μM latanoprost. Cells were exposed to treatments for 6 hours at 37° C. in a 5% CO2 incubator.
(§1) For detection of CREB and Serine-133 (S133)-phosphorylated CREB, serotonin receptor 5HT2A, TCF/LEF1, BDNF and TNF-total protein extracts were prepared from cell cultures using a sintered glass tissue homogenizer (Wheaton, Millville, N.J., USA) in phosphate-buffered saline (PBS), pH 7.5, 3M urea. For detection of β-catenin, cell cultures were washed with PBS, trypsinized, and pelleted at 1,000 rpm for 4 minutes. The cell pellets were washed and resuspended in cold hypotonic buffer consisting of 10 mM HEPES (pH 7.5), 1.5 mM MgCl2, 10 mM KCl, 0.5 mM DTT, and EDTA-free protease inhibitor (Roche, Laval, QC, Canada) in an ice bath for 5 minutes. The mixture was then homogenized using a dounce homogenizer and the cellular debris was pelleted by centrifugation at 4° C. Cytoplasmic fractions were recovered and used for assaying β-catenin.
(§2) Protein concentrations were determined by the Peterson method (Peterson, Analyt. Biochem., 83: 346-356, 1977). […]

GSK-3 [2] = test: Distalless (Dll) expression in Drosophila wing imaginal discs as assay of GSK-3 function; assay type: cell-based; settings: for Dll expression in wing imaginal discs: Dll lacZ, vs DMSO
GSK-3 [3] = test: Glycogen deposition in fat body tissue of third instar larvae; assay type: cell-based, Drosophila melanogaster; settings: 10 and 20 μM; vs vehicle (DMSO)
Experimental: GSK-3 also functions in glycogen deposition via an independent pathway to that of the Wnt/Wg signaling pathway. GSK-3 functions in the glycogen deposition pathway by phosphorylating and inactivating glycogen synthase, which catalyzes the rate-limiting step of glycogen synthesis. To further confirm that PG and PG derivatives inhibit GSK-3 activity, fat body tissue from third instar Drosophila melanogaster larvae was treated with vehicle (DMSO) or 10 and 20 μM latanoprost and the effects of drug treatment on glycogen accumulation was monitored.

[4] = test system: CREB transcription factor; test: CREB transcription factor activation (S133 phosphorylation) in HEK293T cells (Western blot); assay type: cell-based, human; settings: 10 μM, vs DMSO-treated cells
Experimental: Human embryonic kidney 293T (HEK293T) cells, U87MG astrocytoma and the human oligodendrocyte cell line MO3-13 were grown in Dubelco Minimal Eagle Media (DMEM) (Invitrogen, Carlsbad, Calif., USA) supplemented with 5% heat inactivated fetal bovine serum. Cells were grown to 70% confluence prior to treatment. […] Cells were exposed to drug for 3 hours at 37° C. in a 5% CO2 incubator. U87MG cells were grown to 70% confluence prior to treatment. Cells were treated with either DMSO vehicle (NT) or individually with 1, 5 and 10 μM latanoprost in DMEM lacking fetal bovine serum. Cells were exposed to treatments for 6 hours at 37° C. in a 5% CO2 incubator. The human oligodendrocyte cell line MO3-13 was grown and differentiated according to the methods described in McLaurin et al. (McLaurin, J., Trudel, G. C., Shaw, I. T., Antel, J. P., and Cashman, N. R., J. Neurobiol., 26: 283-293, 1995). On the third day of serum starvation, cells were treated with either DMSO vehicle (NT) or individually with 1, 5 and 10 μM latanoprost. Cells were exposed to treatments for 6 hours at 37° C. in a 5% CO2 incubator. […]
as §2

U87MG astrocytoma = test: Immuno-slotblot assay for secreted BDNF, astrocytoma conditioned media; assay type: cell-based, human; settings: 1 μM, 5 μM, 10 μM; astrocyte conditioned media; vs non-treated and DMSO
Experimental: (§3) Human embryonic kidney 293T (HEK293T) cells, U87MG astrocytoma and the human oligodendrocyte cell line MO3-13 were grown in Dubelco Minimal Eagle Media (DMEM) (Invitrogen, Carlsbad, Calif., USA) supplemented with 5% heat inactivated fetal bovine serum. Cells were grown to 70% confluence prior to treatment. HEK293T cells were treated individually with […] latanoprost, unoprostone, bimatoprost, fluprostenol, PGE2, and PGF2α in serum-free DMEM. Cells were exposed to drug for 3 hours at 37° C. in a 5% CO2 incubator. U87MG cells were grown to 70% confluence prior to treatment. […]
(§4) Cell culture media from cells that were not treated or treated with DMSO, 1, 5 or 10 μM latanoprost treated was collected in 15-mL screw cap polypropylene tubes from cell culture dishes. […] The relative amount of BDNF secreted by U87MG astrocytoma and MO3-13 oligodendrocyte cell lines were determined by an immune-slotblot method in which 200 μL of conditioned media was applied in triplicate to nitrocellulose membrane pre-wet in water in a Biodot (SF) ultrafiltration unit (Bio-Rad Laboratories, Mississauga, ON, Canada) under vacuum. […] After washing the membrane as above, the bound secondary antibody was detected by ECL Advance™ Western blot HRP substrate (GE Healthcare) using a ChemiDoc™ MP Imaging System (Bio-Rad Laboratories). The relative amount of BDNF was determined by using ImageLab™ software (BioRad). […]

[5] = test system: human oligodendrocyte cell line MO3-13; test: Immuno-slotblot assay for secreted BDNF, oligodendrocyte conditioned media; assay type: cell-based; settings: 1 μM, 5 μM, 10 μM; oligodendrocytes media; vs non-treated and DMSO
Experimental: as §3, §4

U87MG cells = test: Bipolar disorder biomarkers in glioblastoma U87 cell line (Western blot); assay type: cell-based, human; settings: 1 μM, 5 μM, 10 μM, vs untreated cells
Experimental: Human embryonic kidney 293T (HEK293T) cells, U87MG astrocytoma and the human oligodendrocyte cell line MO3-13 were grown in Dubelco Minimal Eagle Media (DMEM) (Invitrogen, Carlsbad, Calif., USA) supplemented with 5% heat inactivated fetal bovine serum. Cells were grown to 70% confluence prior to treatment. HEK293T cells were treated individually with […] latanoprost, unoprostone, bimatoprost, fluprostenol, PGE2, and PGF2α in serum-free DMEM. Cells were exposed to drug for 3 hours at 37° C. in a 5% CO2 incubator. U87MG cells were grown to 70% confluence prior to treatment. Cells were treated with either DMSO vehicle (NT) or individually with 1, 5 and 10 μM latanoprost in DMEM lacking fetal bovine serum. Cells were exposed to treatments for 6 hours at 37° C. in a 5% CO2 incubator. The human oligodendrocyte cell line MO3-13 was grown and differentiated according to the methods described in McLaurin et al. (McLaurin, J., Trudel, G. C., Shaw, I. T., Antel, J. P., and Cashman, N. R., J. Neurobiol., 26: 283-293, 1995). On the third day of serum starvation, cells were treated with either DMSO vehicle (NT) or individually with 1, 5 and 10 μM latanoprost. Cells were exposed to treatments for 6 hours at 37° C. in a 5% CO2 incubator.
as §1
Protein concentrations were determined by the Peterson method (Peterson, Analyt. Biochem., 83: 346-356, 1977). Proteins (20 μg/lane) were loaded onto SDS-polyacrylamide gels and separated by electrophoresis. Proteins in gels were transferred onto PVDF membranes and processed for antibody reactions. To detect CREB, S133-phosphorylated CREB, and GAPDH loading controls, antibodies were diluted in 2% ECL Advance™ blocking reagent (GE Healthcare, Mississauga, ON, Canada) and solubilized in PBS-Tween20. Membranes were probed overnight at 4° C. Membranes were washed four times with PBS-Tween20 and labeled for 1 hour at 20° C. with secondary antibodies conjugated to horseradish peroxidase (HRP). The membrane was washed four more times with PBS-Tween20 and HRP activity was developed using Advance™ chemiluminescence (ECL) reagent (GE Healthcare, Mississauga, ON, Canada) according to the manufacturer's instructions. PVDF membranes were exposed to X-ray film.
We next examined the effects of latanoprost treatment (1 μM, 5 μM, and 10 μM) on other bipolar disorder biomarkers in glioblastoma U87 cell line.

DBA/2J mice = test: Open field test, amphetamine-stimulated activity mouse model of bipolar disorder; assay type: in vivo
Experimental: DBA/2J strain mice (Jackson Laboratories, Bar Harbor, Me., USA) were obtained with an approximate starting age of 8 weeks and an average body weight of 25.9 g. Mice were acclimatized for at least three days prior to study commencement, and animals in poor condition were rejected during the acclimatization period. All mice were housed under identical conditions in animal rooms with HEPA-filtered air at a temperature of 70° F.+/−5° F. and a relative humidity of 50%+/−20%. Animal rooms maintained a minimum of 12 to 15 air changes per hour with a light/dark cycle of 12 hours on and 12 hours off with no twilight. Sterile Bed-O-Cobs® bedding was used and changed a minimum of once per week. […]
At the commencement of the study, sixty (60) mice were randomly divided into six (6) groups of ten (10) animals. […] During this time, distance traveled was automatically recorded using TopScan (Clever Sys, Reston, Va., USA) video tracking software.
The data herein indicate that PG and PG derivatives may be effective in treating neuropsychiatric conditions such as bipolar disorder. Therefore, we evaluated the efficacy of latanoprost in an open field model of bipolar disorder in mice. […]
Total distance traveled for each mouse over a 20-minute session was recorded using TopScan (Clever Sys, Reston, Va., USA) video tracking software. […]

β-catenin = β-catenin stabilization in the brain of open field test mice (Western blot); assay type: in vivo, mouse; settings: brains after open field test; relative to mice treated with saline; n=3
Experimental: Following the open field test behavioral analysis of mice, the mice were euthanized and their brains were dissected and bifurcated along the longitudinal fissure. Brain samples from mice treated with vehicle (saline), latanoprost, or lithium were processed for β-catenin stabilization by extraction with hypotonic buffer. The levels of stabilized β-catenin were analyzed by Western blot, and the relative amounts of β-catenin (represented as the mean relative amount of three mice per group) were quantified.

Structure (SMILES): CCCCC[C@H](O)/C=C/[C@@H]1[C@@H](C/C=C\CCCC(=O)O)[C@@H](O)C[C@H]1O [PGF2α, (Z)-7-[(1R,2R,3R,5S)-3,5-dihydroxy-2-[(E)-(3S)-3-hydroxy-1-octenyl]-cyclopentyl]-5-heptenoic acid]
- levels of cytoplasmic β-catenin (GSK-3 [1]): increased levels of cytoplasmic β-catenin

Structure (SMILES): CCCCC[C@H](O)/C=C/[C@H]1[C@H](O)CC(=O)[C@@H]1C/C=C\CCCC(=O)O [PGE2, (Z)-7-[(1R,2R,3R)-3-hydroxy-2-[(E)-(3S)-3-hydroxy-1-octenyl]-5-oxo-cyclopentyl]-hept-5-enoic acid]
- levels of cytoplasmic β-catenin (GSK-3 [1]): increased levels of cytoplasmic β-catenin

Structure (SMILES): CCCC(CCC)C(=O)O [valproate]
- Dll expression in wing imaginal discs (GSK-3 [2]; 1 mM): activation of Dll expression

Structure (SMILES): CC(C)OC(=O)CCC/C=C\C[C@@H]1[C@@H](CC[C@@H](O)CCc2ccccc2)[C@H](O)C[C@@H]1O [latanoprost, propan-2-yl-(Z)-7-[(1R,2R,3R,5S)-3,5-dihydroxy-2-[(3R)-3-hydroxy-5-phenylpentyl]cyclopentyl]-hept-5-enoate]
- Dll expression in wing imaginal discs (GSK-3 [2]; 20 μM): increased Dll expression
- Dll activation (DLL protein levels in wing pouch) (GSK-3 [2]; increasing doses 1 μM, 5 μM, 10 μM and 20 μM, vs DMSO control vehicle): significant activation of Dll
- glycogen accumulation in fat body tissue (GSK-3 [3]): increase in glycogen accumulation in a dosage-dependent manner
- levels of cytoplasmic β-catenin (GSK-3 [1]): increased levels of cytoplasmic β-catenin
- levels of S133 phosphorylated-CREB [4]: increased levels of 5133 phosphorylated-CREB
- amount of BDNF secreted (U87MG astrocytoma): increased significantly
- amount of BDNF secreted [5]: no significant increase
- levels of BDNF (U87MG cells): increased levels
- levels of inflammatory cytokine TNF-α (U87MG cells): reduced levels
- levels of serotonin receptor 5HT2A (U87MG cells): increased levels
- levels of transcription factor TCF/LEF1 (U87MG cells): increased levels
- phosphorylation at Ser133 on CREB (U87MG cells): increased levels
- total level of CREB protein (U87MG cells): remaining relatively constant
- amphetamine-stimulated locomotion (distance traveled) (DBA/2J mice; final five minutes of 20-minute open field test, 0.5 mg/kg amphetamine, drug IP 1 hour prior to test, 0.5 mg/kg): significantly reduced; also recorded: significantly (P<0.05) attenuates
- activity in saline-treated mice (DBA/2J mice; no amphetamine, compared among vehicle, latanoprost, lithium): No significant differences
- levels of β-catenin in brain (β-catenin): significantly increased levels of β-catenin
